From patent US11648254B2 (Kumquat Biosciences Inc., priority 2021, dated 2023)
Where two headings read alike, the source gives them in different places.

Tests used:
[1] = molecular target: SOS1 (Homo sapiens (Human), UniProt Q07889); assay: Ras-SOS interaction assay (HTRF); format: biochemical
[2] = system: MIA PaCa-2 cells (K-Ras G12C); assay: Ras-SOS cellular growth inhibition assay (CellTiter-Glo, 3D); format: cell-based
Procedure, shortened: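 Growth read by CellTiter-Glo luminescence about 5 days after dosing with 3-fold dilutions (9 points), added one day post-seeding. Cells: MIA PaCa-2, 3D culture on ultra-low-attachment surface, medium DMEM/Ham's F12 plus 10% FCS and 2.5% horse serum; IC50 by four-parameter fit.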

[3] = system: NCI-H1975 cells (EGFR T790M L858R); assay: EGFR-SOS cellular inhibition assay (CellTiter-Glo, 3D); format: cell-based
[4] = K-RasG13D utilized, read-out: IC50 inhibition of SOS
[5] = K-RasG13D, read-out: IC50 value against SOS1
[6] = Homo sapiens, MIA PaCa-2, 120 h, MIA PaCa-2, 3D proliferation, about 5 days, read-out: Bio-Cell-Prolif-3D (MiaPaca2 IC50)
[7] = Homo sapiens, MIA PaCa-2, MIA PaCa-2, read-out: IC50 in inhibiting MIA PaCa-2 cell growth
[8] = Homo sapiens, 120 h, NCI-H1975, 3D proliferation, about 5 days, read-out: Bio-Cell-Prolif-3D (H1975 IC50)
[9] = Homo sapiens, NCI-H1975, EGFR T790M L858R, read-out: IC50 in inhibiting growth of NCI-H1975 cell line

Chain of SOS1 (Q07889 564-1049): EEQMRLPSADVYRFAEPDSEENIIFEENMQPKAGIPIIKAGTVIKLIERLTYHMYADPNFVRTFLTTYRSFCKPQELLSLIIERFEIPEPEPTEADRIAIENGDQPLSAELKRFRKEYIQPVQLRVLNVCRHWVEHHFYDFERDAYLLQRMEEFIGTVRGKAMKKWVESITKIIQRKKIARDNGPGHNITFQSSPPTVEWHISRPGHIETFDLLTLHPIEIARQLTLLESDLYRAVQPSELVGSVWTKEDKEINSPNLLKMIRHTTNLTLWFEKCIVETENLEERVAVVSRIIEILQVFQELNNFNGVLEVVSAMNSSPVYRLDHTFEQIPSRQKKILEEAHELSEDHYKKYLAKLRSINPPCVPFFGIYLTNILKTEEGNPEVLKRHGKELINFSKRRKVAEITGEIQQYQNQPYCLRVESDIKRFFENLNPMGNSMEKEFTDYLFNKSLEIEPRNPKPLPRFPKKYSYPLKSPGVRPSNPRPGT

| SMILES | IC50 [1, 4] [nM] | IC50 [1, 5] [nM] | IC50 [2, 6] [nM] | IC50 [2, 7] [nM] | IC50 [3, 8] [nM] | IC50 [3, 9] [nM] | IC50 ([2]; MIA PaCa-2, 3D proliferation, about 5 days, read-out: Bio-Cell-Prolif-3D (MiaPaca2 IC50)) [nM] | IC50 ([2]; MIA PaCa-2, read-out: IC50 in inhibiting MIA PaCa-2 cell growth) [nM] | IC50 ([3]; NCI-H1975, 3D proliferation, about 5 days, read-out: Bio-Cell-Prolif-3D (H1975 IC50)) [nM] | IC50 ([3]; NCI-H1975, EGFR T790M L858R, read-out: IC50 in inhibiting growth of NCI-H1975 cell line) [nM] |
| --- | --- | --- | --- | --- | --- | --- | --- | --- | --- | --- |
| COc1nc2ncnc(N[C@H](C)c3cccc(C(F)(F)CO)c3F)c2cc1N1CCN(C(C)C)CC1 [Compound 204, (R)-2,2-difluoro-2-(2-fluoro-3-(1-((6-(4-isopropylpiperazin-1-yl)-7-methoxypyrido[2,3-d]pyrimidin-4-yl)amino)ethyl)phenyl)ethan-1-ol] | < 100 | < 50 | ≤ 1000 | < 500 | ≤ 1000 | < 500 |  |  |  |  |
| COc1nc2nc(C)nc(N[C@H](C)c3cccc(C(F)(F)C4CCN(C(C)C)CC4)c3F)c2cc1N1CCN(C(C)C)CC1 [Compound 163, (R)-N-(1-(3-(difluoro(1-isopropylpiperidin-4-yl)methyl)-2-fluorophenyl)ethyl)-6-(4-isopropylpiperazin-1-yl)-7-methoxy-2-methylpyrido[2,3-d]pyrimidin-4-amine] | < 100 | < 50 | ≤ 1000 | < 500 | ≤ 1000 | < 500 |  |  |  |  |
| Cc1nc(N[C@H](C)c2cccc(C(F)(F)C(C)O)c2F)c2cc(C3(C#N)CC3)c(Cl)nc2n1 (stereo in doubt) [Compound 333, 1-(7-chloro-4-(((R)-1-(3-((S)-1,1-difluoro-2-hydroxypropyl)-2-fluorophenyl)ethyl)amino)-2-methylpyrido[2,3-d]pyrimidin-6-yl)cyclopropane-1-carbonitrile] | < 100 | < 50 | ≤ 1000 | < 500 | ≤ 1000 | < 500 |  |  |  |  |
| Cc1nc(N[C@H](C)c2cccc(C(F)F)c2F)c2cc(C3(C#N)CC3)c(O[C@@H]3CCN(C)C3)nc2n1 [Compound 226, 1-(4-(((R)-1-(3-(difluoromethyl)-2-fluorophenyl)ethyl)amino)-2-methyl-7-(((R)-1-methylpyrrolidin-3-yl)oxy)pyrido[2,3-d]pyrimidin-6-yl)cyclopropane-1-carbonitrile] | < 100 |  | 1000 to 10000 |  | ≤ 1000 | < 500 |  |  |  |  |
| COc1nc2nc(C)nc(N[C@H](C)c3cccc(C(F)F)c3F)c2cc1N1CCN(C2CCOCC2)CC1 [Compound 338, (R)-N-(1-(3-(difluoromethyl)-2-fluorophenyl)ethyl)-7-methoxy-2-methyl-6-(4-(tetrahydro-2H-pyran-4-yl)piperazin-1-yl)pyrido[2,3-d]pyrimidin-4-amine] | < 100 | < 50 | ≤ 1000 |  | ≤ 1000 | < 500 |  |  |  |  |
| COc1nc2nc(C)nc(N[C@H](C)c3cccc(C(F)F)c3F)c2cc1C1=CCS(=O)(=O)CC1 [Compound 127, (R)-4-(4-((1-(3-(difluoromethyl)-2-fluorophenyl)ethyl)amino)-7-methoxy-2-methylpyrido[2,3-d]pyrimidin-6-yl)-3,6-dihydro-2H-thiopyran 1,1-dioxide] | < 100 | < 50 | ≤ 1000 | < 500 | ≤ 1000 | < 500 |  |  |  |  |
| C[C@@H](Nc1ncnc2nc(OC3COC3)c(C3CCS(=O)(=O)CC3)cc12)c1cccc(C(F)F)c1F [Compound 227, (R)-4-(4-((1-(3-(difluoromethyl)-2-fluorophenyl)ethyl)amino)-7-(oxetan-3-yloxy)pyrido[2,3-d]pyrimidin-6-yl)tetrahydro-2H-thiopyran 1,1-dioxide] | < 100 | < 50 | ≤ 1000 |  | ≤ 1000 |  |  |  |  |  |
| COc1nc2nc(C)nc(N[C@H](C)c3cccc(C(F)(F)CO)c3F)c2cc1C1(C#N)CC1 [Compound 206, (R)-1-(4-((1-(3-(1,1-difluoro-2-hydroxyethyl)-2-fluorophenyl)ethyl)amino)-7-methoxy-2-methylpyrido[2,3-d]pyrimidin-6-yl)cyclopropane-1-carbonitrile] | < 100 | < 50 | ≤ 1000 | < 500 | ≤ 1000 | < 500 |  |  |  |  |
| Cc1nc(N[C@H](C)c2cccc(C(F)F)c2F)c2cc(N3CCN(C)CC3)c(OC3COC3)nc2n1 [Compound 411, (R)-N-(1-(3-(difluoromethyl)-2-fluorophenyl)ethyl)-2-methyl-6-(4-methylpiperazin-1-yl)-7-(oxetan-3-yloxy)pyrido[2,3-d]pyrimidin-4-amine] | < 100 | < 50 | ≤ 1000 | < 500 | ≤ 1000 | < 500 |  |  |  |  |
| Cc1nc(N[C@H](C)c2cccc(C(F)F)c2F)c2cc(N3CCS(=O)(=O)CC3)c(Cl)nc2n1 [Compound 259, (R)-4-(7-chloro-4-((1-(3-(difluoromethyl)-2-fluorophenyl)ethyl)amino)-2-methylpyrido[2,3-d]pyrimidin-6-yl)thiomorpholine 1,1-dioxide] | < 100 | < 50 | ≤ 1000 | < 500 | ≤ 1000 | < 500 |  |  |  |  |
| CCN1CCC(c2cc3c(N[C@H](C)c4cccc(C(F)(F)F)c4F)ncnc3nc2OC)CC1 [Compound 199, (R)-6-(1-ethylpiperidin-4-yl)-N-(1-(2-fluoro-3-(trifluoromethyl)phenyl)ethyl)-7-methoxypyrido[2,3-d]pyrimidin-4-amine] | < 100 | < 50 | ≤ 1000 | < 500 | ≤ 1000 | < 500 |  |  |  |  |
| COc1nc2nc(C)nc(N[C@H](C)c3cccc(C(F)(F)F)c3F)c2cc1C1CCN(C(=O)[C@@H]2COCCO2)CC1 [Compound 301, ((S)-1,4-dioxan-2-yl)(4-(4-(((R)-1-(2-fluoro-3-(trifluoromethyl)phenyl)ethyl)amino)-7-methoxy-2-methylpyrido[2,3-d]pyrimidin-6-yl)piperidin-1-yl)methanone] | < 100 | < 50 | 1000 to 10000 |  | ≤ 1000 | < 500 |  |  |  |  |
| COCCOc1nc2nc(C)nc(N[C@H](C)c3cccc(C(F)F)c3OCCOC)c2cc1C1CCS(=O)(=O)CC1 [Compound 158, (R)-4-(4-((1-(3-(difluoromethyl)-2-(2-methoxyethoxy)phenyl)ethyl)amino)-7-(2-methoxyethoxy)-2-methylpyrido[2,3-d]pyrimidin-6-yl)tetrahydro-2H-thiopyran 1,1-dioxide] | < 100 |  | ≤ 1000 |  | 1000 to 10000 |  |  |  |  |  |
| COc1nc2nc(C)nc(N[C@H](C)c3cccc(C(F)F)c3F)c2cc1S(=O)(=O)C1CCN(C)CC1 [Compound 133, (R)-N-(1-(3-(difluoromethyl)-2-fluorophenyl)ethyl)-7-methoxy-2-methyl-6-((1-methylpiperidin-4-yl)sulfonyl)pyrido[2,3-d]pyrimidin-4-amine] | < 100 | < 50 | ≤ 1000 | < 500 | ≤ 1000 | < 500 |  |  |  |  |
| COc1nc2nc(C)nc(N[C@H](C)c3cccc(C(F)F)c3F)c2cc1C1CCS(=N)(=O)CC1 (stereo partly drawn) [Compound 154, (R)-4-(4-((1-(3-(difluoromethyl)-2-fluorophenyl)ethyl)amino)-7-methoxy-2-methylpyrido[2,3-d]pyrimidin-6-yl)-1-iminohexahydro-1λ6-thiopyran 1-oxide] | < 100 | < 50 |  |  |  |  | ≤ 1000 | < 500 | ≤ 1000 | < 500 |
| COc1nc2nc(C)nc(N[C@H](C)c3cccc(C(F)(F)F)c3F)c2cc1N1CCN(C)CC1 [Compound 349, (R)-N-(1-(2-fluoro-3-(trifluoromethyl)phenyl)ethyl)-7-methoxy-2-methyl-6-(4-methylpiperazin-1-yl)pyrido[2,3-d]pyrimidin-4-amine] | < 100 | < 50 | ≤ 1000 | < 500 | ≤ 1000 | < 500 |  |  |  |  |
| COc1nc2nc(C)nc(N[C@H](C)c3cccc(C(F)F)c3F)c2cc1[C@H]1C[C@@H](NC(=O)C2COC2)C1 [Compound 125, N-((1S,3s)-3-(4-(((R)-1-(3-(difluoromethyl)-2-fluorophenyl)ethyl)amino)-7-methoxy-2-methylpyrido[2,3-d]pyrimidin-6-yl)cyclobutyl)oxetane-3-carboxamide] |  | < 50 | ≤ 1000 | < 500 | ≤ 1000 | < 500 |  |  |  |  |
| COc1nc2nc(C)nc(N[C@H](C)c3cccc(C(F)(F)F)c3F)c2cc1N1CCN(C(=O)CO)CC1 [Compound 313, (R)-1-(4-(4-((1-(2-fluoro-3-(trifluoromethyl)phenyl)ethyl)amino)-7-methoxy-2-methylpyrido[2,3-d]pyrimidin-6-yl)piperazin-1-yl)-2-hydroxyethan-1-one] | < 100 | < 50 | ≤ 1000 | < 500 | ≤ 1000 | < 500 |  |  |  |  |
| Cc1nc(N[C@H](C)c2cccc(C(F)F)c2F)c2cc(C3(C#N)CC3)c(OC[C@@H]3CC(F)(F)CN3C)nc2n1 [Compound 296, 1-(7-(((S)-4,4-difluoro-1-methylpyrrolidin-2-yl)methoxy)-4-(((R)-1-(3-(difluoromethyl)-2-fluorophenyl)ethyl)amino)-2-methylpyrido[2,3-d]pyrimidin-6-yl)cyclopropane-1-carbonitrile] | < 100 |  | 1000 to 10000 |  | ≤ 1000 |  |  |  |  |  |
